Patent US20170303540A1, “NOVEL TRIAZOLE DERIVATIVES” (BAYER CROPSCIENCE AKTIENGESELLSCHAFT, priority 2014, published 2017)

Experiment: Log P by HPLC on reversed phase columns (EEC directive 79/831 Annex V.A8)
Format: physicochemical
Conditions: method [a]: HPLC/LC-MS at pH 2.7, 0.1% formic acid in water / acetonitrile gradient
Description: Measurement of Log P values for Table 2 was performed according to EEC directive 79/831 Annex V.A8 by HPLC (High Performance Liquid Chromatography) on reversed phase columns with the following methods: ^[a]Measurement of LC-MS was done at pH 2.7 with 0.1% formic acid in water and with acetonitrile (contains 0.1% formic acid) as eluent with a linear gradient from 10% acetonitrile to 95% acetonitrile. […] Lambda-max-values were determined using UV-spectra from 200 nm to 400 nm and the peak values of the chromatographic signals.

| Compound | LogP |
| --- | --- |
| CC(C)(Cc1ccc(Cl)cc1)C(O)(Cc1ccnnc1Cl)Cn1cncn1 (stereo not drawn) [Example I-368] | 2.75^[a] |
| CCC1(C(O)(Cc2cc(Cl)nnc2Cl)Cn2cncn2)CC1 (stereo not drawn) [Example I-441] | 2.18^[a] |
| OC(Cc1ccc(Cl)cc1Cl)(Cc1ccnnc1Cl)Cn1cncn1 (stereo not drawn) [Example I-444] | 2.34^[a] |
| OC(Cc1ccc(Cl)cc1Cl)(Cc1cc(Cl)nnc1Cl)Cn1cncn1 (stereo not drawn) [Example I-480] | 2.96^[a] |
| CC(CF)(CF)C(O)(Cc1ccnnc1Cl)Cn1cncn1 (stereo not drawn) [Example I-530] | 1.28^[a] |
| C=CC(C)(C)C(O)(Cc1ccnnc1Cl)Cn1cncn1 (stereo not drawn) [Example I-592] | 1.60^[a] |
| CC(C)(CF)C(O)(Cc1ccnnc1Cl)Cn1cncn1 (stereo not drawn) [Example I-593] | 1.31^[a] |
| OC(Cc1cc(Cl)nnc1Cl)(Cn1cncn1)C1CC1 (stereo not drawn) [Example I-710] | 1.49^[a] |
| CCC1(C(O)(Cc2ccnnc2Cl)Cn2cncn2)CC1 (stereo not drawn) [Example I-745] | 1.59^[a] |
| CC(C)(CCl)C(O)(Cc1ccnnc1Cl)Cn1cncn1 (stereo not drawn) [Example I-771] | 1.70^[a] |
| OC(Cc1ccnnc1Cl)(Cn1cncn1)C1CC1 (stereo not drawn) [Example I-799] | 0.84^[a] |

Same assay, conditions: reversed phase HPLC columns; method [a]: HPLC/LC-MS at pH 2.7, 0.1% formic acid in water / acetonitrile gradient

| Compound | chromatographic logP |
| --- | --- |
| CC(C)(C)C(O)(Cc1ccnnc1Cl)Cn1cncn1 (stereo not drawn) [Example I-713, 1-(3-chloropyridazin-4-yl)-3,3-dimethyl-2-(1H-1,2,4-triazol-1-ylmethyl)butan-2-ol] | 1.48 |
